This passage reports IC50 results from patent US11155523B2, “Biphenyl compound as CCR2/CCR5 receptor antagonist” (Medshine Discovery Inc., priority 2016, dated 2021).

The structures appear in SMILES notation.

T1 sequence (P41597 whole entry, species assumed): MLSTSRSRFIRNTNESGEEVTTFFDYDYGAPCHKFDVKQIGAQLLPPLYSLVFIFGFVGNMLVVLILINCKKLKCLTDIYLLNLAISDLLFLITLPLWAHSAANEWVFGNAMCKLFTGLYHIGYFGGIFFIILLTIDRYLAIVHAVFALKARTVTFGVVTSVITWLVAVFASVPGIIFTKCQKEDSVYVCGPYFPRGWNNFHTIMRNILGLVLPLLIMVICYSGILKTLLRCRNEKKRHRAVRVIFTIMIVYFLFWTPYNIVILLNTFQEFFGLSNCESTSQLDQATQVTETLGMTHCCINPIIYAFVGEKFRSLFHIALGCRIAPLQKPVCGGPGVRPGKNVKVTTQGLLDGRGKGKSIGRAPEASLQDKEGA

One assay concerns the target T1, CCR2 (Homo sapiens, UniProt P41597).
T1 construct: expressed in transfected cells; host or cells: HEK293, clone C7, passage P6
Briefly: CCR2 in vitro test: intracellular calcium signal detected by FLIPR. In kind it is cell-based. Particulars: HEK293 cells expressing CCR2, agonist MCP-1 at EC80, calcium signal. Here is the method: (§1) Experimental Example 1: CCR2/CCR5 In Vitro Test
(§2) The intracellular calcium signal was detected by FLIPR, and the IC50 value of the compound was used as an index to evaluate the inhibitory effect of the compound on CCR2 and CCR5 receptors.
(§3) 1. Cell line: The cells were inoculated and incubated in a 5% CO2 incubator at 37° C. overnight.
(§4) CCR2/CCR5 density: 1 M (20 k/well)
(§5) 2. Reagents: Fluo-4 Direct, (Invitrogen, Cat #F10471)
(§6) The compound was dissolved in DMSO to prepare a 10 mM solution, and the compound solution was placed in a nitrogen box.
(§7) Agonist reference compounds:
(§8) Preparation of probenecid in FLIPR assay buffer: 1 mL of FLIPR assay buffer was added to […] of probenecid to prepare a 250 mM solution, which is prepared fresh daily.
(§9) 2× (8 μM) Fluo-4 Direct™ Loading Buffer (per 10 mL) • Thaw a bottle of Fluo-4 Direct™ crystal (F10471). • Add 10 mL of FLIPR assay buffer to the vial. • Add 0.2 mL of probenecid to each 10 mL of Fluo-Direct. The final concentration of the assay was 2.5 mM. • Rotate it and place for >5 minutes (in absence of light). • Prepare fresh daily.
(§10) MCP-1 was diluted in FLIPR assay buffer 1:2 into 10 points, starting at 0.5 uM (final 100 nM). RANTES was diluted in FLIPR assay buffer 1:3 into 10 points, starting at 0.5 uM (final 100 nM). 20 uL of serially diluted compound buffer was added to each well of the DRC plate according to the compound plate map.
(§11) Standard compound was diluted in DMSO 1:3 into 11 points, starting at 1 mM. Test compound was diluted in DMSO 1:3 into 11 points, starting at 2 mM. 250 nL of compound solution was transferred into a cell plate using Echo (Greiner #781946).
(§12) (c) Take the cell plate out of the incubator, and gently dispense 20 uL of 2× Fluo-4 Direct wash-free loading buffer into a 384-well cell culture plate using a pipette. The final cell plate is 40 μL in volume.
(§13) (d) Incubate for 50 minutes at 37° C. under 5% CO2, and for 10 minutes at room temperature.
(§14) (e) Take the cell plate out of the incubator, and place it in FLIPR. Place the composite plate and the tip box in FLIPR.
(§15) (f) For DRC plate: • 1) Run the program on FLIPRTETRA. • 2) Read the fluorescent signal. • 3) Transfer 10 μL of compound from the DRC plate to the cell plate. • 4) Read the fluorescent signal. • 5) Calculate the “maximum−minimum” from Read 90 to the maximum allowed. Use FLIPR to calculate the EC80 value of each cell line. • 6) Prepare 5×EC80 concentration of the agonist reference compound.
(§16) (g) For the composite plate (1-add): • 1) Run the program on FLIPRTETRA. • 2) Transfer 10 μl, of 5×EC80 concentration of the agonist reference compound from the composite plate to the cell plate. • 3) Read the fluorescent signal. • 4) Calculate the “maximum−minimum” from Read 90 to the maximum allowed.
(§17) (h) Analyze the data using Prism, and calculate the IC50 value of the compound.
(In general: Calcium assays in cells follow changes in intracellular calcium, usually with a dye or a luminescent sensor.)
With `CCCCOCCOc1ccc(-c2cc(C)c(OC)c(/C=C/C(=O)Nc3ccc([S@@+]([O-])Cc4cncn4CCC)cc3)c2)cc1` [WX042], the IC50 was determined as 52.8 nM.

With `CCCOCCOc1ccc(-c2ccc(OC(F)F)c(/C=C/C(=O)Nc3ccc([S@+]([O-])Cc4c(C)ncn4CC)cc3)c2)cc1` [WX074], the half-maximal inhibitory concentration (IC50) came out at 5.4 nM.

Take `CCCCOc1ccc(-c2ccc(Cl)c(/C=C/C(=O)Nc3ccc([S+]([O-])Cc4cncn4CC(C)C)cc3)c2)cc1` (stereo not drawn) [WX030]: the IC50 came out at 300 nM.

Turning to `CCCCOc1ccc(-c2ccc(OC)c(/C=C/C(=O)Nc3ccc([S@@+]([O-])Cc4cncn4CCC)cc3)c2)cc1` [WX048], the IC50 was 11.8 nM.

For the molecule `CCCCOCCOc1ccc(-c2ccc(OC)c(/C=C/C(=O)Nc3ccc([S+]([O-])Cc4c(C)ncn4CCC)cc3)c2)cc1` (stereo not drawn) [WX038], the IC50 is 42.5 nM.

`CCCCOCCOc1ccc(-c2cccc(/C=C/C(=O)Nc3ccc([S@@+]([O-])Cc4nncn4CCC)cc3)c2)cc1` [WX010]: the IC50 was determined as 214 nM.

On to `CCCCOCCOc1ccc(-c2ccc(F)c(/C=C/C(=O)Nc3ccc([S@@+]([O-])Cc4cncn4CCC)cc3)c2)cc1` [WX003], for which the half-maximal inhibitory concentration (IC50) is 21.6 nM.

`CCCCOCCOc1ccc(-c2cc(C)cc(/C=C/C(=O)Nc3ccc([S@@+]([O-])Cc4cncn4CCC)cc3)c2)cc1` [WX059]: the IC50 was determined as 9.9 nM.

Take `CCCCOCCOc1ccc(-c2ccc(OC(F)F)c(/C=C/C(=O)Nc3ccc([S@+]([O-])Cc4c(C)ncn4CC)cc3)c2)cc1` [WX046]: the IC50 was 1.1 nM.

`CCCCOCCOc1ccc(-c2ccc(F)c(/C(C)=C/C(=O)Nc3ccc([S@@+]([O-])Cc4cncn4CCC)cc3)c2)cc1` [WX014]: the IC50 amounted to 258 nM.

`CCCCOc1ccc(-c2ccc(Cl)c(/C=C/C(=O)Nc3ccc([S+]([O-])Cc4cncn4CCCC)cc3)c2)cc1` (stereo not drawn) [WX027]: the IC50 worked out at 207 nM.

As to `CCCCOCCOc1ccc(-c2cccc(/C=C/C(=O)Nc3ccc([S+]([O-])Cc4cncn4CC(C)C)cc3)c2)cc1` (stereo not drawn) [WX029], the IC50 was 167 nM.

For `CCCCOCCOc1ccc(-c2cccc(/C=C(\C)C(=O)Nc3ccc([S@@+]([O-])Cc4cncn4CCC)cc3)c2)cc1` [WX008], the IC50 came to 17.3 nM.

As for `CCCn1cncc1C[S@+]([O-])c1ccc(NC(=O)/C=C/c2cc(-c3ccc(OCCCF)cc3)ccc2Cl)cc1` [WX022], the IC50 came out at 205 nM.

Take `CCCCOCCOc1ccc(-c2ccc(OC)c(/C=C/C(=O)Nc3ccc([S@@+]([O-])Cc4cncn4CC)cc3)c2)cc1` [WX040]: the IC50 came to 11.3 nM.

For the molecule `CCCCOCCOc1ccc(-c2ccc(OCC(C)C)c(/C=C/C(=O)Nc3ccc([S@@+]([O-])Cc4cncn4CCC)cc3)c2)cc1` [WX034], the concentration for half-maximal inhibition (IC50) stood at 30 nM.

As to `CCCCOCCOc1ccc(-c2ccc(OC(F)F)c(/C=C/C(=O)Nc3ccc([S@+]([O-])Cc4c(C)ncn4CCC)cc3)c2)cc1` [WX081], the half-inhibitory concentration (IC50) stood at 12.5 nM.

Take `CCCCOCCOc1ccc(-c2ccc(C#N)c(/C=C/C(=O)Nc3ccc([S@@+]([O-])Cc4cncn4CCC)cc3)c2)cc1` [WX044]: the IC50 is 293 nM.

A further assay deals with T2, CCR5 (Homo sapiens, UniProt P51681).
T2 construct: expressed in transfected cells; host or cells: HEK293, clone C13, passage P4
T2 sequence (P51681 whole entry, species assumed): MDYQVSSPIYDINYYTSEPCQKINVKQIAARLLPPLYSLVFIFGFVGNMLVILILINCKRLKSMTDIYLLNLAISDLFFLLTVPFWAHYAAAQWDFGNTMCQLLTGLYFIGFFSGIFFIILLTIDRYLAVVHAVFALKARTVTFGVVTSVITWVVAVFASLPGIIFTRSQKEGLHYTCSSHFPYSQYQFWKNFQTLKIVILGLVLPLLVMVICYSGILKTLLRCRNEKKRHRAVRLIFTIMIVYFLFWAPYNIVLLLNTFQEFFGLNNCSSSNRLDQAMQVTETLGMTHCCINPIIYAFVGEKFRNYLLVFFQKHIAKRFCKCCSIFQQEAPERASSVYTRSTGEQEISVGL
The assay is described as follows: CCR5 in vitro test: intracellular calcium signal detected by FLIPR. Type of assay: cell-based. Particulars: HEK293 cells expressing CCR5, agonist RANTES at EC80, calcium signal. Here is the method:
as §1, §2, §3, §4, §5, §6, §7, §8, §9, §10, §11, §12, §13, §14, §15, §16, §17
Regarding `CCCCOCCOc1ccc(-c2cc(C)c(OC)c(/C=C/C(=O)Nc3ccc([S@@+]([O-])Cc4cncn4CCC)cc3)c2)cc1` [WX042], the IC50 was found to be 4 nM.

Consider `CCCOCCOc1ccc(-c2ccc(OC(F)F)c(/C=C/C(=O)Nc3ccc([S@+]([O-])Cc4c(C)ncn4CC)cc3)c2)cc1` [WX074], for which the IC50 worked out at 3.5 nM.

With `CCCCOc1ccc(-c2ccc(Cl)c(/C=C/C(=O)Nc3ccc([S+]([O-])Cc4cncn4CC(C)C)cc3)c2)cc1` (stereo not drawn) [WX030], the IC50 was 15.9 nM.

Regarding `CCCCOc1ccc(-c2ccc(OC)c(/C=C/C(=O)Nc3ccc([S@@+]([O-])Cc4cncn4CCC)cc3)c2)cc1` [WX048], the IC50 came out at 2.6 nM.

Regarding `CCCCOCCOc1ccc(-c2ccc(OC)c(/C=C/C(=O)Nc3ccc([S+]([O-])Cc4c(C)ncn4CCC)cc3)c2)cc1` (stereo not drawn) [WX038], the IC50 stood at 12.5 nM.

Consider `CCCCOCCOc1ccc(-c2cccc(/C=C/C(=O)Nc3ccc([S@@+]([O-])Cc4nncn4CCC)cc3)c2)cc1` [WX010], for which the IC50 was determined as 17.2 nM.

On to `CCCCOCCOc1ccc(-c2ccc(F)c(/C=C/C(=O)Nc3ccc([S@@+]([O-])Cc4cncn4CCC)cc3)c2)cc1` [WX003], for which the IC50 came out at 3 nM.

`CCCCOCCOc1ccc(-c2cc(C)cc(/C=C/C(=O)Nc3ccc([S@@+]([O-])Cc4cncn4CCC)cc3)c2)cc1` [WX059]: the IC50 was found to be 8.5 nM.

Consider `CCCCOCCOc1ccc(-c2ccc(OC(F)F)c(/C=C/C(=O)Nc3ccc([S@+]([O-])Cc4c(C)ncn4CC)cc3)c2)cc1` [WX046], for which the IC50 was found to be 2.8 nM.

With `CCCCOCCOc1ccc(-c2ccc(F)c(/C(C)=C/C(=O)Nc3ccc([S@@+]([O-])Cc4cncn4CCC)cc3)c2)cc1` [WX014], the IC50 amounted to 7.9 nM.

Consider `CCCCOc1ccc(-c2ccc(Cl)c(/C=C/C(=O)Nc3ccc([S+]([O-])Cc4cncn4CCCC)cc3)c2)cc1` (stereo not drawn) [WX027], for which the IC50 came to 13.6 nM.

Take `CCCCOCCOc1ccc(-c2cccc(/C=C/C(=O)Nc3ccc([S+]([O-])Cc4cncn4CC(C)C)cc3)c2)cc1` (stereo not drawn) [WX029]: the IC50 came out at 34.2 nM.

On to `CCCCOCCOc1ccc(-c2cccc(/C=C(\C)C(=O)Nc3ccc([S@@+]([O-])Cc4cncn4CCC)cc3)c2)cc1` [WX008], for which the IC50 stood at 1.5 nM.

For the molecule `CCCn1cncc1C[S@+]([O-])c1ccc(NC(=O)/C=C/c2cc(-c3ccc(OCCCF)cc3)ccc2Cl)cc1` [WX022], the IC50 worked out at 10.1 nM.

Consider `CCCCOCCOc1ccc(-c2ccc(OC)c(/C=C/C(=O)Nc3ccc([S@@+]([O-])Cc4cncn4CC)cc3)c2)cc1` [WX040], for which the IC50 came out at 10.5 nM.

For `CCCCOCCOc1ccc(-c2ccc(OCC(C)C)c(/C=C/C(=O)Nc3ccc([S@@+]([O-])Cc4cncn4CCC)cc3)c2)cc1` [WX034], the IC50 was 10 nM.

With `CCCCOCCOc1ccc(-c2ccc(OC(F)F)c(/C=C/C(=O)Nc3ccc([S@+]([O-])Cc4c(C)ncn4CCC)cc3)c2)cc1` [WX081], the IC50 is 5.5 nM.

For the molecule `CCCCOCCOc1ccc(-c2ccc(C#N)c(/C=C/C(=O)Nc3ccc([S@@+]([O-])Cc4cncn4CCC)cc3)c2)cc1` [WX044], the IC50 was found to be 16.1 nM.

As usually defined, the IC50 is the concentration at which inhibition is half-maximal.
